From US6040149A, “Assay for identifying agents which act on the ceramide-activated protein kinase, kinase suppressor of ras, and methods of using said agents” (priority 1997, dated 2000)

Legend:
EL-4 cells = assay: Sphingomyelin and ceramide levels in intact EL-4 cells; format: cell-based, murine
Procedure: IL-1β effects on sphingomyelin levels in EL4 cells. Time course (A) and dose response (B). Cells were grown to growth arrest (1-1.5×10^6 cells ml^-1) in DME/Ham's F12 medium (1:1, v/v) containing 10% horse serum and for 48 hours [^3 H]choline (1 μCi ml^-1). On the day of an experiment, cells were resuspended back into the same medium at 10×10^6 cells ml^-1 and stimulated with 40 ng ml^-1 IL-1β for the indicated times (A) or for 30 minutes with increasing concentrations of IL-1β (B). Human IL-1β may be obtained using methods well known to those skilled in the art. Reactions were terminated with CHCl3 :CH3 OH:HCl (100:100:1) containing 10 mM EDTA (82). Lipids in the organic phase extract were dried under N2 and subjected to mild alkaline hydrolysis (0.1 M methanolic KOH for 1 hour at 37° C.) to remove glycerophospholipids. Sphingomyelin was resolved by thin-layer chromatography (TLC) using CHCl3 :CH3 OH:CH3 COOH:H2 O (60:30:8:5) as solvent, identified by iodine vapor staining, and quantified by liquid scintillation spectrometry. As previously reported, the use of [^3 H]choline as a measure of sphingomyelin content was validated by simultaneous phospholipid phosphorus measurements. Each value represents the mean±SEM of triplicate determinations from four experiments in (A), and one representative of four similar studies performed in triplicate in (B).
Effect of IL-1β on ceramide levels in EL-4 cells. Cells were stimulated as in FIG. 12 with IL-1β (40 ng ml^-1) and ceramide contained within the organic phase extract quantified enzymatically using the E. coli diacylglycerol kinase reaction. Lipids were resolved by TLC using CHCl3 :CH3 OH:CH3 COOH (65/15/5) as solvent, autoradiographed and quantified by liquid scintillation spectrometry. Each value represents the mean±SEM of triplicate determinations from 10 experiments.
The murine thymoma EL-4 cell line is a well-defined IL-1 responsive cell line that expresses functional IL-1 receptors. Upon stimulation with IL-1, these cells up-regulate the IL-2 receptor and secrete IL-2 [62]. Initial studies were designed to investigate the effects of IL-1β on cellular sphingomyelin content. Cells, grown in Dulbecco's Modified Eagle's (DME)/Ham's F-12 medium containing 10% horse serum and [^3 H]choline (1 μCi ml^-1), were resuspended back into the same medium at 10×10^6 cells ml^-1 and stimulated with IL-1β. IL-1β is commercially available.

[1] = system: ceramide-activated protein kinase; assay: Ceramide-activated protein kinase activity (EGFR peptide) in EL-4 cell fractions
Procedure: Effect of IL-1β on ceramide-activated protein kinase activity. […] Homogenates were centrifuged at 500×g for 5 minutes to remove nuclei and at 200,000×g for 30 minutes to prepare microsomal membranes. Membranes were resuspended into homogenizing buffer (2.2 μg membrane protein μl^-1). For assay of kinase activity, the reaction mixture contained 20 μl of microsomal membrane, 40 μl EGFR peptide (4 mg ml^-1 in 25 mM Hepes, pH 7.4) and 100 μl buffer (50 mM HEPES, pH 7.4, 20 mM MgCl2). Phosphorylation was initiated at 22° C. by addition of 40 μl [γ-^32 P] ATP (100 μM final concentration) and terminated at the indicated times by addition of 40 μl of 0.5 M ATP in 90% formic acid. Phosphorylated peptide was eluted from a C18 Sep pak cartridge (Millipore), lyophilized, and resolved by C18 reverse phase HPLC using a linear gradient of acetonitrile. […] All assays were performed under conditions determined as linear for time and enzyme concentration. Enzyme activity was determined from the percent conversion of substrate to product and the specific radioactivity of [γ-^32 P] ATP. […] Values (mean±range) represent duplicate determinations from two experiments.
Activity was measured by the transfer of ^32 P from the γ-position of ATP to EGFR peptide (AA 663-681 of the EGFR). The effect of IL-1β on kinase activity was determined using microsomal membranes derived from cells stimulated with IL-1β.

sphingomyelin pathway = assay: Sphingomyelin, ceramide and CAP kinase activity in EL-4 cell-free system; format: biochemical, murine (EL-4 cells); settings: IL-1β 10 ng ml^-1
Procedure: IL-1β effects on sphingomyelin and ceramide levels (A) and ceramide-activated protein kinase activity (B) in a cell-free system. […] Thereafter, supernates (300 μg incubation^-1 in 25 μl) were added to a reaction mixture (total volume 250 μl) as described in FIG. 14. For studies measuring lipid levels, incubations were stopped by extraction of lipids into an organic phase and resolved as described in FIGS. 12 and 13. For studies measuring kinase activity, incubations contained EGFR peptide and [^32 P]ATP, and phosphorylated peptide was quantified as described in FIG. 14. Background activity was subtracted from each point. Values (mean) represent data from two experiments for sphingomyelin performed in triplicate, three experiments for ceramide performed in triplicate, and five experiments for ceramide-activated protein kinase activity performed in duplicate.
Early kinetics of activation of a potential signaling system provide some support that the pathway might be involved in the signaling process. However, signal transduction pathways are highly regulated and often interrelated. […] To provide additional support for tight coupling of the sphingomyelin pathway to activation of the IL-1β receptor, studies were performed with subcellular fractions derived from EL-4 cells. For these studies, supernates, collected after a low-speed centrifugation to remove nuclei, were first incubated with IL-1β for 10 minutes at 4° C. to permit formation of IL-1 receptor complexes. Thereafter, reactions were initiated by warming supernates to 22° C. in a reaction mixture containing Mg^2+ at pH 7.4. These conditions were adopted to allow for activation of endogenous neutral sphingomyelinase. For studies measuring kinase activity, reaction mixtures also contained [^32 P] ATP and EGFR peptide. […] In separate studies, a statistically significant reduction in sphingomyelin content (n=10) and elevation in ceramide content (n=6) were detected at 1 minute of stimulation (p<0.005 vs. control). […] These effects were quantitatively similar to those determined in the intact cells.

protein kinase C = assay: Protein kinase C activity in EL-4 cells (lysine-rich histone phosphorylation); format: cell-based, murine (EL-4 cells); settings: membrane or cytosolic fractions
YT cells = assay: Ceramide generation in YT cells (preliminary); format: cell-based, human
[2] = p<0.005 vs. control at 1 minute

**Q.** How did the “ED50 (sphingomyelin hydrolysis)” value (EL-4 cells; 30 minutes) turn out when IL-1β: Human IL-1β was run?
**A.** ≈ 2 ng ml^-1

**Q.** What about the “concentration of maximal effect (sphingomyelin hydrolysis)” value (EL-4 cells; 30 minutes) of the same substance?
**A.** 10 ng/mL

**Q.** What about the “effective concentration (sphingomyelin hydrolysis)” value (EL-4 cells; 30 minutes) of the same substance?
**A.** 0.01 ng/mL

**Q.** What about the content of phosphatidylcholine (EL-4 cells; IL-1β) of the same substance?
**A.** unchanged

**Q.** And the “onset of reduction in sphingomyelin content” value (EL-4 cells; IL-1β 40 ng ml^-1)?
**A.** ≤ 2 min

**Q.** And the ceramide content (EL-4 cells; IL-1β 40 ng ml^-1, 2 minutes, from 360, p<0.005)?
**A.** 403 pmol 10^6 cells^-1

**Q.** What about the maximum ceramide content (EL-4 cells; IL-1β 40 ng ml^-1, 15 minutes, from 360) of the same substance?
**A.** 450 pmol 10^6 cells^-1

**Q.** What about the sphingomyelin content (EL-4 cells; IL-1β 40 ng ml^-1, 30 minutes, baseline 800±14, mean±SEM, p<0.005) of the same substance?
**A.** 648±16 pmol 10^6 cells^-1

**Q.** What about the “onset of ceramide increase” value (EL-4 cells; separate studies (n=4)) of the same substance?
**A.** ≤ 30 s

**Q.** What about the “ED50 (kinase activity)” value [1] of the same substance?
**A.** ≈ 2 ng ml^-1

**Q.** What about the “concentration of maximal effect (kinase activity)” value [1] of the same substance?
**A.** 10 ng/mL

**Q.** What about the “effective concentration (kinase activity)” value [1] of the same substance?
**A.** 0.03 ng/mL

**Q.** And the “onset of increase in kinase activity” value ([1]; IL-1β 10 ng ml^-1)?
**A.** 30 s

**Q.** What about the “time of maximal kinase activity” value ([1]; IL-1β 10 ng ml^-1) of the same substance?
**A.** 2 min

**Q.** What about the kinase activity ([1]; IL-1β 10 ng ml^-1, from 5) of the same substance?
**A.** 11 pmol/min/mg

**Q.** What about the “kinase activity, fold of control” value ([1]; IL-1β 10 ng ml^-1, microsomal membranes, p<0.005) of the same substance?
**A.** 2.1 fold of control

**Q.** And the “cytosolic kinase activity toward EGFR peptide” value ([1]; cytosolic fractions)?
**A.** not enhanced

**Q.** And the “ceramide-activated protein kinase activity, cell-free” value (sphingomyelin pathway)?
**A.** increased

**Q.** And the “ceramide content, cell-free” value (sphingomyelin pathway; [2])?
**A.** quantitative increase in ceramide content

**Q.** And the “sphingomyelin content, cell-free” value (sphingomyelin pathway; [2])?
**A.** rapid reduction in sphingomyelin content

**Q.** And the “protein kinase C activity” value (protein kinase C)?
**A.** not enhanced

**Q.** And the ceramide generation (YT cells)?
**A.** rapid generation of ceramide

**Q.** And the “IL-2 secretion in combination with TPA” value (EL4 cells; 24 h)?
**A.** stimulated secretion maximally

**Q.** What about the “IL-2 secretion, +TPA” value (EL4 cells; with TPA 20 ng ml^-1, 24 h, nd = not detectable, mean ± range) of the same substance?
**A.** 261 ± 2
